SMILES strings stand for the structures. Read-outs that look alike come from different tables or passages of the source.

The target in assay [1] is T1, cloned human 5-HT1A receptors (Homo sapiens, UniProt P08908).
T1 construct: expressed in transfected cells; host or cells: HeLa cells (HA7), stably transfected; cell homogenate
T1 sequence (P08908 1-422): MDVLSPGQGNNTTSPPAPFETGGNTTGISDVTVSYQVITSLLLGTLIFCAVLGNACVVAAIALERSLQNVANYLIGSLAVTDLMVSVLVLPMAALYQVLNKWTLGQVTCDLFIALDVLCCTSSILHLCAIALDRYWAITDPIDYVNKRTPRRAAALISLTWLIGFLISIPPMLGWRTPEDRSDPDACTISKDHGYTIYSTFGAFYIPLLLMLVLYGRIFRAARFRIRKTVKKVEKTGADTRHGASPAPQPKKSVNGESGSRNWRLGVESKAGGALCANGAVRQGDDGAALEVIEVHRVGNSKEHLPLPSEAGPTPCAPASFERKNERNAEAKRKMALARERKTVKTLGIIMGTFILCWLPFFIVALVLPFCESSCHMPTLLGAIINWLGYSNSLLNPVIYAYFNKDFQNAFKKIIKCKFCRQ
Description: Inhibition of 3H-5-CT binding to human 5-HT1A receptors. As to the method:
Inhibition of ^3H-5CT Binding to Human 5-HT1A Receptors
Human 5-HT1A receptors (40 μg of cell homogenate) were incubated for 15 minutes at 37° C. in 50 mM Tris buffer at pH 7.7 in the presence of ^3H-5-CT. Non-specific binding was determined by including 10 μM of metergoline. The reaction was terminated by rapid filtration through Unifilter GF/B filters on a Tomtec Cell Harvester. Filters were counted in a Packard Top Counter.

Assay [2] has as its system serotonin reuptake (3H-5-HT uptake into whole rat brain synaptosomes). Put plainly: Inhibition of 3H-5-HT uptake into rat brain synaptosomes. It counts as biochemical. As to the method:
Inhibition of ^3H-5HT Uptake Into Rat Brain Synaptosomes
Using this method, the ability of drugs to inhibit the accumulation of ^3H-5-HT into whole rat brain synaptosomes is determined in vitro.

The mark [3] stands for this setting: cloned human 5-HT1A receptors expressed in HeLa cells (HA7).

Take `COc1ccccc1N1CCN(CCCC2(c3ccc(F)cc3)OCc3cc(C#N)ccc32)CC1` (stereo not drawn) [Compound 2a, 1-(4-Fluorophenyl)-1-[3-[4-(2-methoxyphenyl)piperazinyl]propyl]-1,3-dihydroisobenzofuran-5-carbonitrile]: the IC50 (in general, the concentration at which inhibition is half-maximal) in assay [1] (setting [3]) came out at 1 nM. For `COc1ccccc1OCCN(C)CCCC1(c2ccc(F)cc2)OCc2cc(C#N)ccc21` (stereo not drawn) [Compound 2b, 1-(4-Fluorophenyl)-1-[3-[[2-(2-methoxyphenoxy)ethyl]methylamino]propyl]-1,3-dihydroisobenzofuran-5-carbonitrile], the 50% inhibitory concentration (IC50) in assay [2] stood at 40 nM; in assay [1] (setting [3]), 6.4 nM.

In the case of `CN(CCCCc1c[nH]c2ccccc12)CCCC1(c2ccccc2)OCc2ccccc21` (stereo not drawn) [Compound 2e, 1-[3-[[4-(1H-Indol-3-yl)butyl]methylamino]propyl]1-phenyl-1,3-dihydroisobenzofuran], the IC50 in assay [2] is 15 nM; in assay [1] (setting [3]) it was 38 nM.

Regarding `CN(CCCc1c[nH]c2ccccc12)CCC[C@@]1(c2ccc(F)cc2)OCc2cc(C#N)ccc21` [Compound 2f, (S)-1-[3-[[3-(1H-Indol-3-yl)propyl]methylamino]propyl]-1-(4-fluorophenyl)-1,3-dihydroisobenzofuran-5-carbonitrile], the IC50 came out at 14 nM in assay [2] and 8.6 nM in assay [1] (setting [3]). For `CN(CCCc1c[nH]c2ccccc12)CCCC1(c2ccccc2)OCc2ccccc21` (stereo not drawn) [Compound 2g, 1-[3-[[3-(1H-Indol-3-yl)propyl]methylamino]propyl]-1-phenyl-1,3-dihydroisobenzofuran], the IC50 in assay [2] amounted to 20 nM; in assay [1] (setting [3]), 40 nM. As for `CN(CCCc1cccc2c1OCCO2)CCCC1(c2ccc(F)cc2)OCc2ccccc21` (stereo not drawn) [Compound 2j, 5-[3-[[3-[1-(4-Fluorophenyl)-1,3-dihydroisobenzofuran-1-yl]propyl]methylamino]propyl]-1,4benzodioxane], the IC50 was determined as 9.7 nM in assay [2] and 41 nM in assay [1] (setting [3]). The compound `N#Cc1ccc2c(c1)COC2(CCCN1CCN(c2cccc3[nH]ccc23)CC1)c1ccc(F)cc1` (stereo not drawn) [Compound 2m, 1-[3-[4-(1H-Indol-4-yl)piperazinyl]propyl]-1-(4fluorophenyl)-1,3-dihydroisobenzofuran-5carbonitrile] came in with an IC50 in assay [1] (setting [3]) of 4.7 nM. With `N#Cc1ccc2c(c1)COC2(CCCN1CCN(c2ccc3[nH]ccc3c2)CC1)c1ccc(F)cc1` (stereo not drawn) [Compound 2n, 1-[3-[4-(1H-Indol-5-yl)piperazinyl]propyl]-1-(4-fluorophenyl)-1,3-dihydroisobenzofuran-5-carbonitrile], the IC50 in assay [1] (setting [3]) is 15 nM. The compound `N#Cc1ccc2c(c1)COC2(CCCN1CCC(c2c[nH]c3cc(Cl)ccc23)CC1)c1ccc(F)cc1` (stereo not drawn) [Compound 2o, 1-[3-[4-(6-chloro-1H-Indol-3-yl)piperidinyl]propyl]-1-(4fluorophenyl)-1,3-dihydroisobenzofuran-5-carbonitrile] came in with a half-inhibitory concentration (IC50) in assay [1] (setting [3]) of 12 nM. This IC50 and that of the compound before are within 1.5-fold of each other. For `CN(CCCC1(c2ccc(F)cc2)OCc2cc(C#N)ccc21)CCc1c[nH]c2ccccc12` (stereo not drawn) [Compound 4a, 1-[3-[[2-(1H-Indol-3-yl)ethyl]methylamino]propyl]-1-(4-fluorophenyl)-1,3-dihydroisobenzofuran-5-carbonitrile], the half-maximal inhibitory concentration (IC50) worked out at 54 nM in assay [2] and 23 nM in assay [1] (setting [3]). For `COc1cccc(CCN(C)CCCC2(c3ccc(F)cc3)OCc3cc(C#N)ccc32)c1` (stereo not drawn) [Compound 4b, 1-(4-Fluorophenyl)-1-[3-[[2-(3-methoxyphenyl)ethyl]methylamino]propyl]-1,3-dihydroisobenzofuran-5-carbonitrile], the “Inhibition of serotonin reuptake % inhibition at 100 nM” value in assay [2] was 59% inh. at 100 nM. The same compound displayed an IC50 in assay [1] (setting [3]) of 63 nM.

In the case of `C=CCN(CCCC1(c2ccc(F)cc2)OCc2cc(C#N)ccc21)CCc1cccc(OC)c1` (stereo not drawn) [Compound 4c, 1-(4-Fluorophenyl)-1-[3-[[2-(3-methoxyphenyl)ethyl](prop-2-en-1-yl)amino]propyl]-1,3-dihydroisobenzofuran-5-carbonitrile], the “Inhibition of serotonin reuptake % inhibition at 100 nM” value in assay [2] amounted to 4% inh. at 100 nM. Also, the IC50 in assay [1] (setting [3]) was found to be 11 nM. Taken in the same sequence, the figures for `C=CCN(CCCC1(c2ccc(F)cc2)OCc2cc(C#N)ccc21)CCc1ccccc1OC` (stereo not drawn) [Compound 4d, 1-(4-Fluorophenyl)-1-[3-[[2-(2-methoxyphenyl)ethyl](prop-2-en-1-yl)amino]propyl]-1,3-dihydroisobenzofuran-5-carbonitrile] were 7% inh. at 100 nM and 4.5 nM. On to `COc1ccc(OC)c(CCN(C)CCCC2(c3ccc(F)cc3)OCc3cc(C#N)ccc32)c1` (stereo not drawn) [Compound 4e, 1-[3-[[2-(2,5-Dimethoxyphenyl)ethyl]methylamino]propyl]-1-(4-fluorophenyl)-1,3-dihydroisobenzofuran-5-carbonitrile], for which the IC50 in assay [2] stood at 160 nM; in assay [1], 17 nM. As for `C=CCN(CCCc1cccc(OC)c1)CCCC1(c2ccc(F)cc2)OCc2cc(C#N)ccc21` (stereo not drawn) [Compound 4l], the “Inhibition of serotonin reuptake % inhibition at 100 nM” value in assay [2] is 27% inh. at 100 nM. On to `COc1ccccc1OCCCN(C)CCCC1(c2ccc(F)cc2)OCc2cc(C#N)ccc21` (stereo not drawn) [Compound 4m], for which, in assay [2], the “Inhibition of serotonin reuptake % inhibition at 100 nM” value is reported as 74% inh. at 100 nM. As to `C#CCN(CCCc1c[nH]c2ccccc12)CCCC1(c2ccc(F)cc2)OCc2cc(C#N)ccc21` (stereo not drawn) [Compound 4u, 1-[3-[[3-(1H-Indol-3-yl)propyl](prop-2-yl-1-yl)amino]propyl]-1-(4-fluorophenyl)-1,3-dihydroisobenzofuran-5-carbonitrile], the “Inhibition of serotonin reuptake % inhibition at 100 nM” value in assay [2] is listed as 44% inh. at 100 nM. In assay [1], `CN(CCCC1(c2ccc(F)cc2)OCc2cc(C#N)ccc21)CCc1c[nH]c2c(F)cccc12` (stereo not drawn) [Compound 12b, 1-[3-[[2-(7-Fluoro-1H-indol-3-yl)ethyl]methylamino]propyl]-1-(4-fluorophenyl)-1,3-dihydroisobenzofuran-5-carbonitrile] gave an IC50 of 43 nM. `C=CCN(CCCc1c[nH]c2ccc(Cl)cc12)CCCC1(c2ccc(F)cc2)OCc2cc(C#N)ccc21` (stereo not drawn) [Compound 13k, 1-[3-[[3-(5-Chloro-1H-indol-3-yl)propyl](prop-2-en-1-yl)amino]propyl]-1-(4-fluorophenyl)-1,3-dihydroisobenzofuran-5-carbonitrile]: the IC50 in assay [1] (setting [3]) is 19 nM. The same measure, in the same setting: to `N#Cc1ccc2c(c1)COC2(CCCN(CCCc1c[nH]c2ccccc12)CCOc1ccccc1)c1ccc(F)cc1` (stereo not drawn) [Compound 13p, 1-[3-[[3-(1H-Indol-3-yl)propyl](2-phenoxyethyl)amino]propyl]-1-(4-fluorophenyl)-1,3-dihydroisobenzofuran-5-carbonitrile] belongs 23 nM. Same read-out and setting: next, `Cc1ccc2[nH]cc(CCN(CCCC3(c4ccc(F)cc4)OCc4cc(C#N)ccc43)CCOc3ccccc3)c2c1` (stereo not drawn) [Compound 13q, 1-[3-[[2-(5-Methyl-1H-indol-3-yl)ethyl](2-phenoxyethyl)amino]propyl]-1-(4-fluorophenyl)-1,3dihydroisobenzofuran-5-carbonitrile]: 12 nM; `N#Cc1ccc2c(c1)COC2(CCCN(CCOc1ccccc1)CCc1c[nH]c2ccc(F)cc12)c1ccc(F)cc1` (stereo not drawn) [Compound 13r, 1-[3-[[2-(5-Fluoro-1H-indol-3-yl)ethyl](2-phenoxyethyl)amino]propyl]-1-(4-fluorophenyl)-1,3-dihydroisobenzofuran-5-carbonitrile]: 8.9 nM; `Cc1ccc2[nH]cc(CCCN(CCCC3(c4ccc(F)cc4)OCc4cc(C#N)ccc43)CCOc3ccccc3)c2c1` (stereo not drawn) [Compound 13t, 1-[3-[[3-(5-Methyl-1H-indol-3-yl)propyl](2-phenoxyethyl)amino]propyl]-1-(4-fluorophenyl)-1,3-dihydroisobenzofuran-5-carbonitrile]: 23 nM. Still for that read-out and setting: next, `N#Cc1ccc2c(c1)COC2(CCCN(CCCc1c[nH]c2ccc(F)cc12)CCOc1ccccc1)c1ccc(F)cc1` (stereo not drawn) [Compound 13u, 1-[3-[[3-(5-Fluoro-1H-indol-3-yl)propyl](2-phenoxyethyl)amino]propyl]-1-(4-fluorophenyl)-1,3-dihydroisobenzofuran-5-carbonitrile]: 22 nM. In turn, `N#Cc1ccc2c(c1)COC2(CCCN(CCOc1ccccc1)CCc1c[nH]c2c(F)cc(F)cc12)c1ccc(F)cc1` (stereo not drawn) [Compound 13v, 1-[3-[[2-(5,7-Difluoro-1H-indol-3-yl)ethyl](2-phenoxyethyl)amino]propyl]-1-(4-fluorophenyl)-1,3-dihydroisobenzofuran-5-carbonitrile] gave an IC50 in assay [1] (setting [3]) of 23 nM. The IC50 values of the last two compounds are within 1.5-fold of each other.

In assay [1] (setting [3]), `CC(C)c1ccc2[nH]cc(CCN(CCCC3(c4ccc(F)cc4)OCc4cc(C#N)ccc43)CCOc3ccccc3)c2c1` (stereo not drawn) [Compound 13x, 1-[3-[(2-Phenoxyethyl)[2-[5-(2-propyl)-1H-indol-3-yl]ethyl]amino]propyl]-1-(4-fluorophenyl)-1,3-dihydroisobenzofuran-5-carbonitrile] returned an IC50 of 26 nM.
